In paper PMC11649115, “In vitro safety evaluation of dopamine D3R antagonist, R-VK4-116, as a potential medication for the treatment of opioid use disorder” (PLOS ONE, 2024):

Assays:
[1] = molecular target: T1, OATP1B3 (Homo sapiens, UniProt Q9NPD5); assay: Transporter mediated assay (substrate/inhibitor), MDCK-II cells; format: in vitro ADME
T1 construct: expressed in transfected cells; host or cells: MDCK-II cells
T1 sequence (Q9NPD5 1-702): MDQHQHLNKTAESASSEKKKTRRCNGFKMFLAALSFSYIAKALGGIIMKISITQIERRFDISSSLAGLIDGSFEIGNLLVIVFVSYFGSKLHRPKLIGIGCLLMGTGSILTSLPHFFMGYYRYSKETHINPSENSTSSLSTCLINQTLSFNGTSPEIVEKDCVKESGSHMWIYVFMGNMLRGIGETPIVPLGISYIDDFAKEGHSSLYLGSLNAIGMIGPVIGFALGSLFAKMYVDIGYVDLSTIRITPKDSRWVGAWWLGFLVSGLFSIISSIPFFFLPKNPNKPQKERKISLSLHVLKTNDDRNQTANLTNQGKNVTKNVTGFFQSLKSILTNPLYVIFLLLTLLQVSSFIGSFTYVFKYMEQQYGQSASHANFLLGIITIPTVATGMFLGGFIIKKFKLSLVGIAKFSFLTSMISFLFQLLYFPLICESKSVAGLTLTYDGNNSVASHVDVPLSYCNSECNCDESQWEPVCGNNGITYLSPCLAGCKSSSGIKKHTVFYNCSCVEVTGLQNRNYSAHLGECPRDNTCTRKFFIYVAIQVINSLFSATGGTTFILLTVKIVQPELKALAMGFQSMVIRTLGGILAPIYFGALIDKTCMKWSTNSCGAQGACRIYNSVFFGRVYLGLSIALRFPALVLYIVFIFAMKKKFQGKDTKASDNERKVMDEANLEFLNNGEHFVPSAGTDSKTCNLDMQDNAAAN
Method: The MDCK-II cells were treated to express the transporter of interest. The transport of each probe substrate was determined by radiometric detection (Fig 1 in S1 File). […] For the uptake assay, the net transporter-mediated uptake-rate (V) of the substrate by each SLC transporter was calculated as follows: Transporter–mediatedupdaterate(pmol/min/cm^2)=(Cellularaccumulationincellsexpressingthetransporter)−(Meancellularaccumulationincontrolcells)/Surfacearea×incubationtime
Fold of activity and percent inhibition were determined as follows: Foldofactivity=(Meanuptakerate)transporterexpressingcells/(Meanuptakerate)controlcells Percentinhibition=100−100×(Transport‐mediatedupdaterate)withinhibitor/(Transport‐mediatedupdaterate)vehiclecontrol

[2] = molecular target: CYP3A4 (Homo sapiens, UniProt P08684); assay: in vitro; conditions: microsomes
[3] = molecular target: T2, CYP2B6 (Homo sapiens, UniProt P20813); assay: CYP inhibition in human liver microsomes; conditions: human liver microsomes
T2 sequence (P20813 1-491): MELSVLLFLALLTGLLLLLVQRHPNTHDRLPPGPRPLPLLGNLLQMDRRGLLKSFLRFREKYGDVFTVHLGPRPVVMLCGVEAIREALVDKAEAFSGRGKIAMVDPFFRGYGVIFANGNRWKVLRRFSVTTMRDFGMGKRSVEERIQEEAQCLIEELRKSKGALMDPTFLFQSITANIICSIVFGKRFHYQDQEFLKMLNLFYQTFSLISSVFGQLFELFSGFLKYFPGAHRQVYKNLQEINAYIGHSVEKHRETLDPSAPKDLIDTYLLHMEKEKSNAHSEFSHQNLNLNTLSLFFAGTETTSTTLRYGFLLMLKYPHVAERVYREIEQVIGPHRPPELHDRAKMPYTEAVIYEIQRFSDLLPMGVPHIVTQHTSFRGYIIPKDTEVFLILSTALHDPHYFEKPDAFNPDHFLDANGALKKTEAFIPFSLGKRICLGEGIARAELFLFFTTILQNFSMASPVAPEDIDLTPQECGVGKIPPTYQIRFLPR

[4] = molecular target: CYP2D6 (Homo sapiens, UniProt P10635); assay: CYP inhibition in human liver microsomes; conditions: human liver microsomes
[5] = CYP activity (% of Control) 3A4 (Midazolam)
[6] = CYP activity (% of Control) 3A4 (Testosterone)

Sequence of CYP3A4 (P08684 2-503): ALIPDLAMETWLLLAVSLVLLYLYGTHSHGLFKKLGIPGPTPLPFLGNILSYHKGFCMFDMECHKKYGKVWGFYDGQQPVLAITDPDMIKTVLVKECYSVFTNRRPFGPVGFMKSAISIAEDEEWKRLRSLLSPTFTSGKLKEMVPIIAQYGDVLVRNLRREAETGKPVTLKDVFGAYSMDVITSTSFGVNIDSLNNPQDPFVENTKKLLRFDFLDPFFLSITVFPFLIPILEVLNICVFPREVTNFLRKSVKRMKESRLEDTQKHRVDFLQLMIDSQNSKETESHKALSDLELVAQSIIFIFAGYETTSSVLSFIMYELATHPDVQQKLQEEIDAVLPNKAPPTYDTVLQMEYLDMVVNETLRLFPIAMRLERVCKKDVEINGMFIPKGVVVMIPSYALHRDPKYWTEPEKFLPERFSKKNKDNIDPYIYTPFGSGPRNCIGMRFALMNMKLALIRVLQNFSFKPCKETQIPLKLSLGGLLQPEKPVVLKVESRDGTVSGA
Sequence of CYP2D6 (P10635 whole entry): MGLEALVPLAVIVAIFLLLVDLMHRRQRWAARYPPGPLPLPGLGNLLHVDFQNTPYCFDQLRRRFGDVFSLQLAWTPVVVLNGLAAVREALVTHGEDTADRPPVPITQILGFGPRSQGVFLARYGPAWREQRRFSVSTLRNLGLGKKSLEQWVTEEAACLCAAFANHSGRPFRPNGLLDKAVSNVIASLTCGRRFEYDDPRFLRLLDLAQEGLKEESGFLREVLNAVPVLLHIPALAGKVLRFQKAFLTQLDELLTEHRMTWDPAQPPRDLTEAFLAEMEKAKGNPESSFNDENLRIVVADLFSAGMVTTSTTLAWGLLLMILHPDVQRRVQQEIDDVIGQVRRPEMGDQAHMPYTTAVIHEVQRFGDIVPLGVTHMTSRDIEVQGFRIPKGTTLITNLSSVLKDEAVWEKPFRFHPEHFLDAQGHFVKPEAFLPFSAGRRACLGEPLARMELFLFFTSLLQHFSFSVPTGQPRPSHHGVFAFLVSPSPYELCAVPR

CCc1cc(Cl)c(OC)c(N2CCN(CC(O)CCNC(=O)c3cc4ccccc4[nH]3)CC2)c1 (stereo not shown) [R-VK4-116, N-(4-(4-(3-chloro-5-ethyl-2-methoxyphenyl)piperazin-1-yl)-3-hydroxybutyl)-1H-indole-2-carboxamide]
fold difference in mean uptake rate (substrate test) ([1]; OATP1B3, 1 μM, transporter cells vs control cells): < 2 fold | Inhibition (%) ([1]; OATP1B3, 0.1% BSA, 10 μM): no statistically significant inhibition | inhibition at 10 µM ([1]; human, polarized monolayer of MDCK-II cells expressing OATP1B3, OATP1B3, 0.1% BSA, 10 μM): 5.29 ± 10.7% | activity at 20 min, 0.1 µM [2, 5]: 97.5 ± 3.9% | activity at 20 min, 0.3 µM [2, 5]: 93.9 ± 2.4% | activity at 20 min, 1 µM [2, 5]: 95.3 ± 0.9% | activity at 20 min, 3 µM [2, 5]: 95.6 ± 4.2% | activity at 20 min, 10 µM [2, 5]: 96.9 ± 2% | activity at 20 min, 30 µM [2, 5]: 92.2 ± 0.7% | activity at 20 min, 60 µM [2, 5]: 92.6 ± 1% | activity at 20 min, 100 µM [2, 5]: 96.9 ± 3.2% | activity at 20 min, 0.1 µM [2, 6]: 96.5 ± 3.6% | activity at 20 min, 0.3 µM [2, 6]: 93.2 ± 3.8% | activity at 20 min, 1 µM [2, 6]: 94.2 ± 2.4% | activity at 20 min, 3 µM [2, 6]: 92.8 ± 4.8% | activity at 20 min, 10 µM [2, 6]: 93.9 ± 2.1% | activity at 20 min, 30 µM [2, 6]: 94.2 ± 1.5% | activity at 20 min, 60 µM [2, 6]: 92.1 ± 1.1% | activity at 20 min, 100 µM [2, 6]: 95.5 ± 3.7% | CYP2B6 inhibition ([3]; up to 100 μM): did not inhibit CYP significantly | activity at 20 min, 0.1 µM ([3]; human, probe bupropion): 99.6 ± 7.5% | activity at 20 min, 0.3 µM ([3]; human, probe bupropion): 90.9 ± 2.5% | activity at 20 min, 1 µM ([3]; human, probe bupropion): 91.2 ± 1.4% | activity at 20 min, 3 µM ([3]; human, probe bupropion): 99.8 ± 7.6% | activity at 20 min, 10 µM ([3]; human, probe bupropion): 97.5 ± 6.6% | activity at 20 min, 30 µM ([3]; human, probe bupropion): 89.3 ± 1.2% | activity at 20 min, 60 µM ([3]; human, probe bupropion): 91 ± 0.7% | activity at 20 min, 100 µM ([3]; human, probe bupropion): 97 ± 4.9% | CYP2D6 inhibition ([4]; up to 100 μM): did not inhibit CYP significantly | activity at 20 min, 0.1 µM ([4]; human, probe bufuralol): 92.6 ± 9% | activity at 20 min, 0.3 µM ([4]; human, probe bufuralol): 86.1 ± 4% | activity at 20 min, 1 µM ([4]; human, probe bufuralol): 84.3 ± 3.7% | activity at 20 min, 3 µM ([4]; human, probe bufuralol): 92.1 ± 6.8% | activity at 20 min, 10 µM ([4]; human, probe bufuralol): 94.7 ± 6.5% | activity at 20 min, 30 µM ([4]; human, probe bufuralol): 83.1 ± 1.6% | activity at 20 min, 60 µM ([4]; human, probe bufuralol): 84.5 ± 1.8% | activity at 20 min, 100 µM ([4]; human, probe bufuralol): 95 ± 7.5%
